Results: patent US10961202B2, “Bis-benzimidazole compounds and methods of using the same” (THE SCRIPPS RESEARCH INSTITUTE, priority 2017, dated 2021)
pIC50: −log10 of the molar value.

System: r(CUG)12-MBNL1 complex
Test: Inhibition of the r(CUG)12-MBNL1 complex measured by TR-FRET
Assay type: biochemical
Settings: 80 nM RNA, 60 nM MBNL1-His6

SMILES | pIC50 (Table L) | pIC50 (Table M)
CCOC(CNC(=N)Nc1ccc2nc(-c3ccc(-c4nc5ccc(NC(=N)NCC(OCC)OCC)cc5[nH]4)cc3)[nH]c2c1)OCC [Compound 18, 1,1′-(2,2′-(1,4-phenylene)bis(1H-benzo[d]imidazole-5,2-diyl))bis(3-(2,2-diethoxyethyl)guanidine)] | 4.46 | 
CN(C)CCNC(=O)c1ccc(-c2nc3cc(-c4ccc5[nH]c(-c6ccc(C(=O)NCCN(C)CCCCc7cn(CCCNC(=O)CCC(=O)NCCCN=[N+]=[N-])nn7)cc6)nc5c4)ccc3[nH]2)cc1 [Compound 345] |  | 4.47
O=[N+]([O-])c1ccc2nc(-c3ccc(-c4ccc(-c5nc6ccc([N+](=O)[O-])cc6[nH]5)cc4)cc3)[nH]c2c1 [Compound 79] | 4.36 | 
N#Cc1ccc(Oc2ccc3nc(-c4ccc(-c5nc6ccc(Oc7ccc(C#N)cc7)cc6[nH]5)cc4)[nH]c3c2)cc1 [Compound 229, 4,4′-((2,2′-(1,4-phenylene)bis(1H-benzo[d]imidazole-6,2-diyl))bis(oxy))dibenzonitrile] |  | < 3.70
c1cc2nc(-c3ccc(-c4nc5ccc(C6=NCCN6)cc5[nH]4)cc3)[nH]c2cc1C1=NCCN1 [Compound 14, 1,4-bis(6-(4,5-dihydro-1H-imidazol-2-yl)-1H-benzo[d]imidazol-2-yl)benzene] | 4.96 | 
C[C@@H](NC(=O)CNCCCn1cc(CCCCN(C)CCNC(=O)CCCOc2ccc3[nH]c(-c4ccc(-c5nc6cc(OCCCN(C)C)ccc6[nH]5)cc4)nc3c2)nn1)C(=O)N[C@H](C)C(=O)N[C@H](C)C(=O)N[C@H](C)C(=O)N(CCCn1cc(CCCCN(C)CCNC(=O)CCCOc2ccc3[nH]c(-c4ccc(-c5nc6cc(OCCCN(C)C)ccc6[nH]5)cc4)nc3c2)nn1)CC(N)=O [Compound 407] |  | 3.96
CN(C)CCNC(=O)c1ccc(-c2nc3ccc(-c4ccc5nc(-c6ccc(C(=O)Nc7cccc(-c8cn(CCCNCC(=O)N9CCC[C@H]9C(=O)N9CCC[C@H]9C(=O)N9CCCC9C(=O)N9CCC[C@H]9C(=O)N(CCCn9cc(-c%10cccc(NC(=O)c%11ccc(-c%12nc%13ccc(-c%14ccc%15nc(-c%16ccc(C(=O)NCCN(C)C)cc%16)[nH]c%15c%14)cc%13[nH]%12)cc%11)c%10)nn9)CC(N)=O)nn8)c7)cc6)[nH]c5c4)cc3[nH]2)cc1 (some centres unmarked) [Compound 436] |  | 5.59
Brc1ccc(-c2nc3cc(-c4ccc5[nH]c(-c6ccc(Br)cc6)nc5c4)ccc3[nH]2)cc1 [Compound 104] | < 3.70 | 
CN(C)CC(=O)Nc1ccc2nc(-c3ccc(-c4nc5ccc(NC(=O)CN(C)C)cc5[nH]4)cc3)[nH]c2c1 [Compound 63] | 4.97 | 
O=C(NCCCN1CCCCC1)c1ccc2nc(-c3ccc(-c4nc5ccc(C(=O)NCCCN6CCCCC6)cc5[nH]4)cc3)[nH]c2c1 [Compound 48, 2,2′-(1,4-phenylene)bis(N-(3-(piperidin-1-yl)propyl)-1H-benzo[d]imidazole-6-carboxamide)] | 4.99 | 
Nc1ccc(-c2nc3cc(-c4ccc5[nH]c(-c6ccc(N)cc6)nc5c4)ccc3[nH]2)cc1 [Compound 95, 4,4′-(1H,1′H-[5,5′-bibenzo[d]imidazole]-2,2′-diyl)dianiline] | 3.97 | 
CN(C)CCNC(=O)c1ccc(-c2nc3ccc(-c4ccc5nc(-c6ccc(C(=O)N(C)CCCc7cn(CCCNCC(=O)N8CCC[C@H]8C(=O)N8CCC[C@H]8C(=O)N8CCC[C@H]8C(=O)N8CCC[C@H]8C(=O)N(CCCn8cc(CCCN(C)C(=O)c9ccc(-c%10nc%11ccc(-c%12ccc%13nc(-c%14ccc(C(=O)NCCN(C)C)cc%14)[nH]c%13c%12)cc%11[nH]%10)cc9)nn8)CC(N)=O)nn7)cc6)[nH]c5c4)cc3[nH]2)cc1 [Compound 435] |  | 4.88
O=C(O)c1ccc2nc(-c3ccc(-c4nc5ccc(C(=O)NCCN6CCCCC6)cc5[nH]4)cc3)[nH]c2c1 [Compound 43, 2-(4-(6-((2-(piperidin-1-yl)ethyl)carbamoyl)-1H-benzo[d]imidazol-2-yl)phenyl)-1H-benzo[d]imidazole-6-carboxylic Acid] | < 3.70 | 
CN(C)CCCOc1ccc(-c2nc3cc(-c4ccc5[nH]c(-c6ccc(C(=O)NCCCn7cc(-c8cccc(NC(=O)c9ccc(-c%10nc%11cc(-c%12ccc%13[nH]c(-c%14ccc(C(=O)NCCN(C)C)cc%14)nc%13c%12)ccc%11[nH]%10)cc9)c8)nn7)cc6)nc5c4)ccc3[nH]2)cc1 [Compound 456] |  | 4.35
CN(C)CCCOc1ccc(-c2nc3cc(-c4ccc5[nH]c(-c6ccc(C(=O)NCCCN=[N+]=[N-])cc6)nc5c4)ccc3[nH]2)cc1 [Compound 400] |  | 4.83
N#Cc1cccc(-c2nc3cc(-c4ccc5[nH]c(-c6cccc(C#N)c6)nc5c4)ccc3[nH]2)c1 [Compound 120] | < 3.70 | 
CN(C)CC(CN(C)C)Oc1ccc(-c2nc3cc(-c4ccc5[nH]c(-c6ccc(OC(CN(C)C)CN(C)C)cc6)nc5c4)ccc3[nH]2)cc1 [Compound 369] |  | < 3.70
CN(C)CCNC(=O)c1ccc(-c2nc3cc(-c4ccc5[nH]c(-c6ccc(C(=O)NCCCCCNC(=O)c7ccc(-c8nc9cc(-c%10ccc%11[nH]c(-c%12ccc(C(=O)NCCN(C)C)cc%12)nc%11c%10)ccc9[nH]8)cc7)cc6)nc5c4)ccc3[nH]2)cc1 [Compound 414] |  | 5.09
CN(C)CCCOc1c(C(C)(C)C)cc(-c2nc3cc(-c4ccc5[nH]c(-c6cc(C(C)(C)C)c(O)c(C(C)(C)C)c6)nc5c4)ccc3[nH]2)cc1C(C)(C)C [Compound 372, 2,6-di-tert-butyl-4-(2′-(3,5-di-tert-butyl-4-(3-(dimethylamino)propoxy)phenyl)-1H,1′H-[5,5′-bibenzo[d]imidazol]-2-yl)phenol] |  | < 3.70
CN1CCC(Oc2ccc(-c3nc4cc(-c5ccc6[nH]c(-c7ccc(OC8CCN(C)CC8)cc7)nc6c5)ccc4[nH]3)cc2)CC1 [Compound 335] |  | 4.65
CN(C)NC(=O)c1ccc2nc(-c3ccc(-c4nc5ccc(C(=O)NN(C)C)cc5[nH]4)cc3)[nH]c2c1 [Compound 67] | < 3.70 | 
N=C(N)Nc1ccc(-c2nc3cc(-c4ccc5[nH]c(-c6ccc(N)cc6)nc5c4)ccc3[nH]2)cc1 [Compound 167] | 4.26 | 
CC(=O)NCCNC(=O)c1ccc2nc(-c3ccc(-c4nc5ccc(C(=O)NCCNC(C)=O)cc5[nH]4)cc3)[nH]c2c1 [Compound 51, 2,2′-(1,4-phenylene)bis(N-(2-acetamidoethyl)-1H-benzo[d]imidazole-6-carboxamide)] | < 3.70 | 
CN1CCCCC1COc1ccc(-c2nc3cc(-c4ccc5[nH]c(-c6ccc(OCC7CCCCN7C)cc6)nc5c4)ccc3[nH]2)cc1 (centres unmarked) [Compound 359] |  | 4.18
CC(=O)NCCN(C)CCNC(=O)c1ccc(-c2ccc3[nH]c(-c4ccc(OCCCN(C)C)cc4)nc3c2)cc1 [Compound 396] |  | < 3.70
CN(C)CCCSc1ccc(-c2nc3cc(-c4ccc5[nH]c(-c6ccc(C(=O)NCCN(C)C)cc6)nc5c4)ccc3[nH]2)cc1 [Compound 387] |  | 5.05
Cn1c(-c2ccc(-c3nc4ccc(NC(=N)N)cc4n3C)cc2)nc2cc(NC(=N)N)ccc21 [Compound 87] | < 3.70 | 
CN1CC[C@@H](Oc2ccc(-c3nc4cc(-c5ccc6[nH]c(-c7ccc(O[C@@H]8CCN(C)C8)cc7)nc6c5)ccc4[nH]3)cc2)C1 [Compound 373] |  | 4.53
CN(C)CCn1cc(-c2ccc3nc(-c4ccc(-c5nc6ccc(-c7cn(CCN(C)C)nn7)cc6[nH]5)cc4)[nH]c3c2)nn1 [Compound 251, 2,2′-(4,4′-(2,2′-(1,4-phenylene)bis(1H-benzo[d]imidazole-6,2-diyl))bis(1H-1,2,3-triazole-4,1-diyl))bis(N,N-dimethylethanamine)] |  | 3.95

Other lines, results leading:

pIC50 (Table L) | pIC50 (Table M) | SMILES
 | < 3.70 | COCCn1c(-c2ccc(-c3nc4cc(OCCCN(C)C)ccc4[nH]3)cc2)nc2cc(OCCCN(C)C)ccc21 [Compound 329]
 | < 3.70 | CN(C)CCCCc1ccc2nc(-c3ccc(-c4nc5ccc(CCCCN(C)C)cc5[nH]4)cc3)[nH]c2c1 [Compound 220, 4,4′-(2,2′-(1,4-phenylene)bis(1H-benzo[d]imidazole-6,2-diyl))bis(N,N-dimethylbutan-1-amine)]
 | 4.74 | CCCCCOc1ccc(-c2nc3cc(-c4ccc5[nH]c(-c6ccc(C(=O)NCCN(C)C)cc6)nc5c4)ccc3[nH]2)cc1 [Compound 392]
 | < 3.70 | N#CCCCOc1ccc2nc(-c3ccc(-c4nc5ccc(OCCCC#N)cc5[nH]4)cc3)[nH]c2c1 [Compound 289]
 | 4.44 | CN(C)CCCCCOc1ccc2nc(-c3ccc(-c4nc5ccc(O)cc5[nH]4)cc3)[nH]c2c1 [Compound 193]
 | < 3.70 | CN(C)CCCOc1ccc2nc(-c3ccc(-c4nc5ccc(OCCCN(C)C)cc5n4C)cc3)[nH]c2c1 [Compound 312]
5.11 |  | CN(C)CCCNC(=O)c1ccc2nc(-c3ccc(-c4nc5ccc(C(=O)NCCCN(C)C)cc5[nH]4)cc3)[nH]c2c1 [Compound 36, 2,2′-(1,4-phenylene)bis(N-(3-(dimethylamino)propyl)-1H-benzo[d]imidazole-6-carboxamide)]
< 3.70 |  | CN(C)CCNCc1ccc2nc(-c3ccc(-c4nc5ccc(CNCCN(C)C)cc5[nH]4)cc3)[nH]c2c1 [Compound 61]
 | 4.37 | CN(C)CCCOc1ccc2nc(-c3ccc(-c4nc5ccc(OCCCN(C)C)cc5[nH]4)c([N+](=O)[O-])c3)[nH]c2c1 [Compound 288, 3,3′-(((2-nitro-1,4-phenylene)bis(1H-benzo[d]imidazole-2,6-diyl))bis(oxy))bis(N,N-dimethylpropan-1-amine)]
 | < 3.70 | FC(F)(F)CCCOc1ccc2nc(-c3ccc(-c4nc5ccc(OCCCC(F)(F)F)cc5[nH]4)cc3)[nH]c2c1 [Compound 281]
 | 4.76 | NCCCOc1ccc(-c2nc3cc(-c4ccc5[nH]c(-c6ccc(OCCCN)cc6)nc5c4)ccc3[nH]2)cc1 [Compound 378]
 | 4.20 | CN(C)CCCOc1ccc2nc(-c3ccc(-c4nc5ccc(OCCCCO)cc5[nH]4)cc3)[nH]c2c1 [Compound 224]
 | 4.61 | CN(C)CCCNC(=O)c1ccc2nc(-c3ccc(-c4nc5ccc(OCCCN(C)C)cc5[nH]4)cc3)[nH]c2c1 [Compound 239]
 | 4.41 | CN1CCC(COc2ccc3nc(-c4ccc(-c5nc6ccc(O)cc6[nH]5)cc4)[nH]c3c2)CC1 [Compound 194, 2-(4-(6-((1-methylpiperidin-4-yl)methoxy)-1H-benzo[d]imidazol-2-yl)phenyl)-1H-benzo[d]imidazol-6-ol]
 | 4.50 | CN(C)CCCOc1ccc2nc(-c3ccc(-c4nc5ccc(OCCCN(C)C)c(F)c5[nH]4)cc3)[nH]c2c1F [Compound 280]
